# Test results published in patent publication US10563171B2, “Method for inducing differentiation of pluripotent stem cells into germ cells” (Kyoto University, priority 2015, dated 2020).
# What was measured:
# BTAG 585B1-868 hiPSCs = test: Induction of iMeLCs from hiPSCs having induction capacity into BTAG positive cells (FACS of BTAG(+) cells); assay type: cell-based, human
# Description: (§1) Initial mesoderm-like cells (iMeLCs) were induced by seeding hiPSCs maintained in StemFit™ in a 12 well plate coated with human plasma fibronectin (Millipore, FC010) at 1.0-2.0×10^5 cells per well in GK15 medium [GMEM containing 15% KSR, 0.1 mM NEAA, 2 mM L-glutamine, 1 mM sodium pyruvate and 0.1 mM 2-mercaptoethanol (Life Technologies)] containing 50 ng/ml activin A, 3 μM CHIR99021 and 10 μM ROCK inhibitor (Y-27632; Wako Pure Chemical Industries). The hiPSCs were induced by seeding in a low-cell-binding V-bottom 96 wellplate (Thermo, 81100574) at 3.0×10^3 cells per well in GK15 added with 1000 U/ml LlF (Millipore, #LIF1005), 200 ng/ml BMP 4,100 ng/ml SCF (R&D Systems, 455-MC), 50 ng/ml EGF (R&D Systems, 236-EG), and 10 μM ROCK inhibitor. For investigation of conditions and induction of iMeLCs or hPGCLC, PD173074 (StemGent, #04-0008) or LDN193189 (StemGent, #04-0074) was respectively added. Other than the above, WNT3A (R&D Systems, 5036-WN) was used instead of CHIR99021, and BMP2 (R&D Systems, 355-BM), BMP7 (R&D Systems, 354-BP), or BMP8A (R&D Systems, 1073-BP) was used instead of BMP4.
# (§2) Floating aggregates containing hPGCLCs were separated by treating with 0.05% Trypsin-EDTA/PBS at 37° C. for 10 min. After washing with PBS containing FBS and 0.1% BSA, the cell suspension was filtered by a cell strainer (BD Biosciences) and centrifuged to remove cell aggregates. The collected cells were suspended in FACS buffer (0.1% BSA in PBS) and analyzed by a flow cytometer (ARIA III; BD Biosciences). For the analysis of hPGCLCs or hiPSCs, the separated cells were stained with APC-conjugated anti-human CD326 (EpCAM), BV421-conjugated anti-human/mouse CD49f, PE-conjugated anti-TRA-1-60, or FITC-conjugated anti-SSEA-4. Furthermore, intracellular staining using Alexa fluor 647-conjugated anti-OCT3/4, Alexa Fluor 647-conjugated anti-NANOG or V450-conjugated anti-SOX2 was performed using BD cytofix/Cytoferm Fixation/Permeabilization kit (BD, 554714) and according to the Manufacturer's instructions.
# iMeLCs = test: Induction of BTAG positive cells (hPGCLCs) from iMeLCs in floating aggregates; assay type: cell-based, human; settings: for role in induction of BTAG positive cells from iMeLCs: combination of BMP4, LIF, SCF and EGF changed, FIG. 11A-D
# Description: as §1, §2
compound,measurement,setting,value
"Cc1c[nH]c(-c2cnc(NCCNc3ccc(C#N)cn3)nc2-c2ccc(Cl)cc2Cl)n1 [CHIR, 6-[2-[4-(2,4-Dichlorophenyl)-5-(4-methyl-1H-imidazol-2-yl)pyrimidin-2-ylamino]ethylamino]pyridine-3-carbonitrile, reference compound]",concentration essential for the induction of iMeLCs having induction capacity into BTAG positive cells,"BTAG 585B1-868 hiPSCs; concentration changed during induction of iMeLC from hiPSCs, FIG. 10C",3 to 5 µM
"c1ccc2c(-c3cnn4cc(-c5ccc(N6CCNCC6)cc5)cnc34)ccnc2c1 [LDN193189, reference compound]",effect of BMP4 on BTAG positive cell induction in presence of ALK2/3 inhibitor,iMeLCs; FIG. 11B,blocked
"CCN(CC)CCCCNc1ncc2cc(-c3cc(OC)cc(OC)c3)c(NC(=O)NC(C)(C)C)nc2n1 [PD173074, reference compound]",number of BTAG-positive cells per cell aggregate,"BTAG 585B1-868 hiPSCs; FGFR signaling inhibited during induction of iMeLCs, FIG. 10G, 10H",increased
EGF: epithelial cell growth factor,role in induction of BTAG positive cells from iMeLCs,iMeLCs,maintaining rather than inducing
LIF: leukemia inhibitory factor,role in induction of BTAG positive cells from iMeLCs,iMeLCs,maintaining rather than inducing
SCF: stem cell factor,role in induction of BTAG positive cells from iMeLCs,iMeLCs,maintaining rather than inducing
bFGF: basic fibroblast growth factor,effect of signaling on iMeLCs induction,"BTAG 585B1-868 hiPSCs; added during induction of iMeLC, FIG. 10D, 10E",acts negatively
